Here are results for 1 molecule from article PMC9605737, “Identification of 6ω-cyclohexyl-2-(phenylamino carbonylmethylthio)pyrimidin-4(3H)-ones targeting the ZIKV NS5 RNA dependent RNA polymerase” (Frontiers in Chemistry, 2022).

Each structure is given as a SMILES string. A value given as a limit tells only on which side of the number the result lay.

Broadly, the CC50 is the concentration giving 50% cytotoxicity. A high value points to better tolerance by the cells. By IC50 is commonly meant the concentration needed to halve the response being measured.

A short description of data set [1]: MTT cytotoxicity assay in Vero cells. Type of data set: cell-based, African green monkey. The conditions noted are these: African green monkey, triplicate, >200 = highest soluble concentration not reaching 50% cytotoxicity. The procedure: MTT assay was used to detect the toxicity of the compound. Cells were seeded in 96-well plates and cultured overnight. Compounds with different concentrations were added and incubated for 96 h. Then, 20 μl of 5 mg/ml MTT (Sigma-Aldrich, United States) solution was added to each well and kept at 37°C for 4 h. Subsequently, 100 μl of 12% SDS-50% DMF (Sigma-Aldrich, United States) solution was added and incubated overnight at 37°C. After the crystalline formamidine was completely dissolved, the optical density (OD) value was measured using a microplate reader (BioTek, United States) with a wavelength of 570 nm and a reference wavelength of 630 nm.
The 50% effective concentration (EC50) and 50% cytotoxic concentration (CC50) of the compound were calculated according to the Reed and Muench method, inhibition rate of ZIKV RNA yield- [(1-drug treatment/positive control) × 100]. The data and graphs were processed using GraphPad Prism8 software, expressed as mean ± standard deviation (Mean ± SD), comparison between groups using ANOVA, p < 0.05 was considered statistically significant.
In general terms: Tetrazolium assays rely on reduction of a dye to a coloured formazan, in cell work by metabolically active cells.

The next data set relates to ZIKV E protein. The data set is described as follows: Western blot of ZIKV E protein in infected Vero cells. The following applies: 12.5 μM, 48 h. Type of data set: cell-based, Zika virus. From the text: ZIKV E protein is one of the most important structural proteins of ZIKV, which plays an important role in the correct assembly of the virus and evasion of the host’s innate immunity ([Jaimipuk et al., 2022]). We have verified that 4w has a significant inhibitory effect on ZIKV-infected cell lines from different sources at the molecular level, but it is unknown whether it has the same antiviral effect at the protein level. Therefore, in order to explore the inhibitory effect of 4w on ZIKV protein level, we added serially diluted 4w to ZIKV-infected Vero cells for 48 h, collected the total protein for WB experiments, and then detected the effect of 4w on ZIKV E and NS5 protein. At the same time, the inhibitory effect of 4w on ZIKV E protein was verified again by immunofluorescence experiment.
Vero cells were infected with ZIKV (MOI = 1) at 37°C for 2 h. Next, the different amounts of 4w were added to continue culturing for 48 h to extract the total protein in the cells. The total protein was separated in sodium dodecyl sulfate polyacrylamide gel electrophoresis (SDS-PAGE). […] The antibody signal was recorded and quantified using the Tanon-5200 Multi Imaging System.
A general note: Immunoblotting shows a protein as a band on a membrane.

In another data set the test system is ZIKV. The data set is described as follows: Four different methods of drug treatment (virus, co-, pre-, post-treatment). The data set is classed as cell-based, Zika virus. The conditions noted are these: viral load. From the text:
ZIKV RdRp was a important domain in the C-terminal of ZIKV NS5, and plays a crucial role in the replication and synthesis of RNA in the life cycle of ZIKV. In order to further verify that 4w activity is related to RdRp domain inhibition, we examined the effect of 4w on the replication cycle of ZIKV using four different drug treatments and time-sharing withdrawal experiments (Figure 7A).
As mentioned above ([Duan et al., 2019]; [Zou et al., 2020]), according to the different life cycles of the ZIKV, four different drug treatment methods are set: virus treatment, co-treatment, pre-treatment, post-treatment. For virus treatment, the ZIKV and 4w were pre-treated in a 4°C refrigerator for 1 h, then the treated virus was added to the cells for 2 h of infection, and the virus was discarded, washed twice with PBS, and added to maintenance medium (containing 2% FBS DMEM high sugar medium), continue to culture at 37°C, 5% CO2 incubator for 3 days, collect the cell supernatant for RT-PCR and plaque experiments. For co-treatment: add 4w and ZIKV to the cells at the same time, incubate at 37°C, 5% CO2 for 2 h, then remove the virus and compounds, add maintenance medium for 3 days. Pre-treatment: Compound 4w and cells were treated at 4°C for 1 h, then 4w was removed, ZIKV was added for 2 h, remove virus and the maintenance medium was added to continue culturing for 3 days. […]

In another data set the test system is HCV NS5B RdRp. The conditions noted are these: ref Shen (2015); cited from earlier work.

As to `CCc1c(C2CCCCC2)nc(SCC(=O)Nc2cc(F)cc(F)c2)[nH]c1=O` [Compound 4w, 2-{[4-cyclohexyl-5-ethyl-6-oxo-1,6-dihydropyrimidin-2-yl]thio}-N-(3,5-difluorophenyl)acetamide], in data set [1], the cytotoxic concentration (CC50) at 96 h was > 200000 nM. For the same molecule, in the data set with ZIKV E protein, the “inhibition of ZIKV E protein expression (WB)” value was “significantly inhibit”. Also, the “stage of the ZIKV replication cycle acted on” value with ZIKV was “mainly acts on the post-entry stage of the virus”. Further, in the data set on HCV NS5B RdRp, the half-inhibitory concentration (IC50) is 102 nM.
